# Measured values as given in patent US10155004B2, “17-hydroxy-17-pentafluoroethyl-estra-4,9(10)-dien-11-aryl derivatives, method of production thereof and use thereof for the treatment of diseases” (BAYER INTELLECTUAL PROPERTY GMBH, priority 2009, dated 2018).
# Key:
# [1] = molecular target: T1, human progesterone receptor B (Homo sapiens, UniProt P06401); experiment: Progesterone receptor-antagonistic action in stably transfected SK-N-MC cells, MTV-LUC reporter (PR-B); assay type: cell-based; details: antagonistic efficacy vs 0.1 nmol/l promegestone
# T1 construct: expressed in transfected cells; host or cells: SK-N-MC human neuroblastoma cells, stably transfected
# T1 sequence (P06401 1-933): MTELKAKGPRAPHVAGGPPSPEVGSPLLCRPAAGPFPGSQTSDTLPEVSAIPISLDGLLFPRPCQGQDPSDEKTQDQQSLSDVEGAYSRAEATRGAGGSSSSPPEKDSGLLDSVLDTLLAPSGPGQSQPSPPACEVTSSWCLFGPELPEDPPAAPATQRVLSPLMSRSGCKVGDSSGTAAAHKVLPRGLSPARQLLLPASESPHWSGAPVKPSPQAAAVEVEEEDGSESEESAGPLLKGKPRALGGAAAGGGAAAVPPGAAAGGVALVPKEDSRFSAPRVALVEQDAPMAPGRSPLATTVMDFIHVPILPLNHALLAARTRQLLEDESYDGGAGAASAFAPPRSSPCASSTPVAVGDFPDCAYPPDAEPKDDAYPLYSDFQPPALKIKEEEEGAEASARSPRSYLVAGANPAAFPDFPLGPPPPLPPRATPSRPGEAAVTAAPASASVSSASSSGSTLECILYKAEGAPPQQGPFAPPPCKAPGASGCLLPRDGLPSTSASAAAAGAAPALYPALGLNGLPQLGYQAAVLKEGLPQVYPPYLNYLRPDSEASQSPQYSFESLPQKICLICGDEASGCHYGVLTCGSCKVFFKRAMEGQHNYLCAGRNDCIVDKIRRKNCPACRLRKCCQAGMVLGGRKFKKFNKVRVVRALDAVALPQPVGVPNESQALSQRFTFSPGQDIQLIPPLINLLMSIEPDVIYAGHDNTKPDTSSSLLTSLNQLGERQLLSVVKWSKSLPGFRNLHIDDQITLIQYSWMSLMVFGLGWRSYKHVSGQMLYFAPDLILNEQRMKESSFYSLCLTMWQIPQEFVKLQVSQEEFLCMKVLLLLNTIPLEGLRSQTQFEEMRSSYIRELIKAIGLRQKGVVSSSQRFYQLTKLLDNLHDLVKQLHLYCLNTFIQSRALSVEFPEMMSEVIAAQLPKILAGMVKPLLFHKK
# Protocol: EXAMPLE 16 PROGESTERONE RECEPTOR-ANTAGONISTIC ACTION IN STABLE TRANSFECTANTS OF HUMAN NEUROBLASTOMA CELLS (SK-N-MC CELLS) WITH THE HUMAN PROGESTERONE A OR PROGESTERONE B RECEPTOR AND AN MTV-LUC REPORTER CONSTRUCT
# SK-N-MC cells (human neuroblastoma cells), which have been stably transfected with plasmids, which express the human progesterone receptor B (pRChPR-B-neo) or the human progesterone receptor A (pRChPR-A-neo) and a reporter construct (pMMTV-LUC), were incubated for 24 hours either in the absence (negative control) or in the presence of increasing amounts of the respective test compound (0.01 nmol/l, 0.1 nmol/l 1 nmol/l, 10 nmol/l, 100 nmol/l and 1 μmol/l), in order to determine the agonistic efficacy. As positive control of reporter gene induction, the cells were treated with the synthetic gestagen promegestone (0.01 nmol/l, 0.1 nmol/l, 1 nmol/l, 10 nmol/l, 100 nmol/l and 1 μmol/l). For determination of the antagonistic activity, the cells were treated with 0.1 nmol/1 promegestone and additionally with increasing amounts of the respective test compound (0.01 nmol/l, 0.1 nmol/l, 1 nmol/l, 10 nmol/l, 100 nmol/l and 1 μmol/l). The activity of the LUC reporter gene (LUC=luciferase) was determined in the cell lysates and was measured as RLU (relative light units). All measured values are given as percentage efficacy and as EC50 or IC50 concentrations.
# 11β-(4-Acetylphenyl)-20,20,21,21,21-pentafluoro-17-hydroxy-19-nor-17α-pregna-4,9-dien-3-one and 20,20,21,21,21-pentafluoro-17-hydroxy-11β-[4-(hydroxyacetyl)phenyl]-19-nor-17α-pregna-4,9-dien-3-one, very potent and therefore preferred examples from WO98/34947 and WO2008/058767, were tested as comparative compounds along with the test compound.
# [2] = Metabolic stability in human liver microsomes (HLM); assay type: in vitro ADME; details: from HLM half-life, well-stirred model, phase I reactions; 1 μM, 0.5 mg/ml protein
# Protocol: EXAMPLE 18 METABOLIC STABILITY OF (11β,17β)-17-HYDROXY-11[4-(METHYLSULPHONYL)PHENYL]-17-(PENTAFLUOROETHYL)ESTRA-4,9-DIEN-3-ONE AND (11β,17β)-17-HYDROXY-11-[4′-(METHYLSULPHONYL)-BIPHENYL-4-YL]-17-(PENTAFLUOROETHYL)ESTRA-4,9-DIEN-3-ONE IN HUMAN LIVER MICROSOMES (HLM)
# Isolated human liver microsomes (HLM) were used for assessing the metabolic stability of compounds of general formula I.
# Incubations were carried out with 2.4 ml of HLM solution (0.5 mg/ml protein content), 30 μl of the test compound (final concentration 1 μM) and 0.6 ml of the cofactor mixture (=NADPH-generating system of 3 IU glucose-6-phosphate dehydrogenase, 14.6 mg glucose-6-phosphate, 1.2 mg NADP) at 37° C. in 100 mM phosphate buffer at pH 7.4. Samples are taken at 6 time points (2-60 min), precipitated with an equal volume of methanol and the recovery of the test substances used in the supernatant is determined by LC-MS/MS analysis. The intrinsic clearance of the substance in the liver microsome preparation can be calculated from the half-life found for the breakdown of the substance. Based on this, together with various physiological characteristics according to the well-stirred model, it is then possible to predict a (metabolic) in vivo clearance with respect to phase I reactions. […]
# [3] = test system: rodents and non-rodents; details: in vivo
smiles,measurement,setting,value
"C[C@]12C[C@H](c3ccc(S(C)(=O)=O)cc3)C3=C4CCC(=O)C=C4CC[C@H]3[C@@H]1CC[C@@]2(O)C(F)(F)C(F)(F)F [Example 4, (11β,17β)-17-Hydroxy-11-[4-(methylsulphonyl)phenyl]-17-(pentafluoroethyl)estra-4,9-dien-3-one]",Progesterone receptor B (PR-B) Efficacy,[1],100%
same,(metabolic) in vivo clearance in humans predicted,[2],1.7 mL/min/kg
same,safety profile,[3],especially favourable safety profile
